The results in this text go back to patent US11932601B2, “Immunoregulatory agents” (FLEXUS BIOSCIENCES, INC., priority 2014, dated 2024).

pIC50: −log10 of the molar value.

T1 sequence (P14902 whole entry): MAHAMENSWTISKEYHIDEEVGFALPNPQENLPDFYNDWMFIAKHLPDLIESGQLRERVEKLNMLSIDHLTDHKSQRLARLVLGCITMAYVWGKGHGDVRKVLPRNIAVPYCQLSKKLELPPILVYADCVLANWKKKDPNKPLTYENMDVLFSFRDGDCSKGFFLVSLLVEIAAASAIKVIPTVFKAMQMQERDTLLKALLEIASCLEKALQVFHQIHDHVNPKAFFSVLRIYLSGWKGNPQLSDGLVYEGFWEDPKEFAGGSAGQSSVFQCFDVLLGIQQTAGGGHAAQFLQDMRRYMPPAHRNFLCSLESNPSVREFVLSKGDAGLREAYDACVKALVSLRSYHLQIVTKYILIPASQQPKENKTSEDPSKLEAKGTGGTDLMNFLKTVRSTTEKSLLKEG

The assay concerns the target T1, human IDO1 (Homo sapiens, UniProt P14902).
T1 construct: expressed in transfected cells
Briefly: HEK293 cells stably expressing human IDO1, IDO inhibition assay (kynurenine, Ehrlich reagent, absorbance 490 nm). The note with it: 20 hours incubation, 500 nM reference standard = 100% inhibition, read-out: HEK Human IDO-1 Biological Activity (IC50). The class given is cell-based. The procedure:
HEK293 cells were transfected with a pCDNA-based mammalian expression vector harboring human IDO1 cDNA (NM 002164.2) by electroporation. They were cultured in medium (DMEM with 10% FBS) containing 1 mg/ml G418 for two weeks. Clones of HEK293 cells that stably expressed human IDO1 protein were selected and expanded for IDO inhibition assay.
The human IDO1/HEK293 cells were seeded at 10,000 cells per 50 μL per well with RPMI/phenol red free media contains 10% FBS in a 384-well black wall clear bottom tissue culture plate (Matrix Technologies LLC) 100 nL of certain concentration of compound was then added to each well using ECHO liquid handling systems. The cells were incubated for 20 hours in 37° C. incubator with 5% CO2.
The compound treatments were stopped by adding Trichloroacetic Acid (Sigma-Aldrich) to a final concentration at 0.2%. The cell plate was further incubated at 50° C. for 30 minute. The equal volume supernatant […] and 0.2% (w/v) Ehrlich reagent (4-dimethylaminobenzaldehyde, Sigma-Aldrich) in glacial acetic acid were mixed in a new clear bottom 384-well plate. This plate was then incubated at room temperature for 30 minute. The absorbance at 490 nm was measured on Envision plate reader.
What is called pIC50 is the negative decadic logarithm of the IC50, by convention in mol/L. As for `CC(C(=O)Nc1ccc(Cl)cc1)C1CCC(c2cc(-c3ccc(F)cc3)ncn2)CC1` (stereo not drawn) [Example 314a, N-(4-chlorophenyl)-2-(4-(6-(4-fluorophenyl)pyrimidin-4-yl)cyclohexyl) propanamide], the pIC50 is more than 6.60.
The result for `CC(C(=O)Nc1ccc(Cl)cc1)C1CCC(c2ccncc2F)CC1` (stereo not drawn) [Example 318a, N-(4-chlorophenyl)-2-(4-(3-fluoropyridin-4-yl)cyclohexyl) propanamide] reads more than 7.30.
As to `Cc1nccc(C2CCC(C(C)C(=O)Nc3ccc(Cl)cc3)CC2)n1` (stereo not drawn) [Example 319a, N-(4-chlorophenyl)-2-(4-(2-methylpyrimidin-4-yl)cyclohexyl) propanamide], the pIC50 was more than 6.60.
For `Cc1nccc(C2CCC(C(C)C(=O)Nc3ccc(Cl)cc3)CC2)n1` (stereo not drawn) [Example 319b, N-(4-chlorophenyl)-2-(4-(2-methylpyrimidin-4-yl)cyclohexyl) propanamide], the pIC50 is less than 6.60.
The figure for `CC1(CC(=O)Nc2ccc(Cl)cc2)CCN(c2ccnc(C(F)(F)F)c2)CC1` [Example 321, N-(4-Chlorophenyl)-2-(4-methyl-1-(2-(trifluoromethyl)pyridin-4-yl)piperidin-4-yl)acetamide] is more than 6.60.
As for `CC1(CC(=O)NC2(C)CCCCC2)CCN(c2ccnc(C(F)(F)F)c2)CC1` [Example 322, 2-(4-Methyl-1-(2-(trifluoromethyl)pyridin-4-yl)piperidin-4-yl)-N-(1-methylcyclohexyl)acetamide], the pIC50 is less than 6.60.
